From patent publication EP4741392A1, “1H-PYRAZOLO[4,3-C]PYRIDINE COMPOUND, AND COMPOSITION THEREOF AND USE THEREOF” (Shenzhen TargetRx Co., Ltd., priority 2023, dated 2025)
Where two headings read alike, the source gives them in different places.

Key:
Format in all cases: cell-based
[1] = test system: NIH/3T3 BTK C481S cells; experiment: Phosphor-BTK(Y223) assay, adherent cells; details: read-out: NIH/3T3 BTK-C481S pBTK
Procedure: (§1) The purpose of this assay was to simply, quickly and directly detect the level of endogenous BTK phosphorylation in cells.
(§2) The steps for handling adherent cells were as follows: • 1) NIH/3T3 BTK WT cells (7.5 k/well) and NIH/3T3 BTK C481S cells (10 k/well) were plated in a 96-well plate, respectively, and cultured at 37 °C and 5% CO2 overnight. • 2) A 3-fold final concentration gradient dilution of a compound was prepared, and 50 µL of it was taken and added to 100 µL of cell culture. 0.5% DMSO was used as a positive control for cell growth. • 3) The plate was incubated at 37 °C and 5% CO2 for 0.5 h. • 4) Na3VO4 at a final concentration of 1mM was added, and the plate was incubated at 37 °C and 5% CO2 for 2 hours. • 5) During the incubation, the following reagents were prepared: • 1x added lysis buffer: 3 vol ddH2O + 1 vol 4x lysis buffer + 100x blocking reagent. • p-BTK (Y223) cryptate-antibody and p-BTK (Y223) d2-antibody working solutions: 1 volume of each cryopreserved antibody (stored at - 20 °C) was added to 19 times the volume of assay buffer (stored at 4 °C). • 6) After the incubation was completed, the medium was removed and 50 µL of 1x added lysis buffer was added. The plate was centrifuged at 500 rpm at room temperature for 30 min. • 7) The lysate was mixed well and 16 µL of it was transferred to a 384-well plate. 1 × added lysis buffer was used as a blank control. • 8) 4 µL of pre-mixed working solutions of the two antibodies (cryptate Ab:d2 Ab = 1:1) was added, and the plate was sealed. • 9) The plate was incubated at room temperature overnight. 10) The plate was read at 665nm and 620nm using Biotek cytation3.0 microplate reader, and the ratio of 665/620nm of each well was calculated.
(§3) The IC50 (half-maximal phosphorylation inhibitory concentration) of the phosphorylated BTK Y223 of the compound was obtained using the following nonlinear fitting formula: Y = Bottom + (Top−Bottom)/(1+10^(∧)((LogIC50−X)*HillSlope)) [formula] • X: Log value of the compound concentration • Y: Inhibition rate (% inhibition) • Top: Maximum response • Bottom: Baseline response • HillSlope: Slope of the curve
(§4) The formula for calculating cell phosphorylation inhibition rate (inhibition rate %) was: Inhibition rate% = 1−(eachconcentrationwell-blankwell)/(positivecontrolwell−blankwell) [formula]

[2] = test system: NIH/3T3 BTK WT cells; experiment: Phosphor-BTK(Y223) assay, adherent cells; details: read-out: NIH/3T3 BTK-WT pBTK
Procedure: as §1, §2, §3, §4

[3] = test system: Ramos cells with BTK WT; experiment: Phosphor-BTK(Y223) assay, suspended cells; details: phosphorylated BTK Y223, Ramos cells with BTK WT
Procedure: as §1
The steps for handling suspended cells were as follows: • 1) Ramos cells with BTK WT (2.5 k/well), BTK C481S (2.5 k/well), or BTK T474I (2.5 k/well) were plated in a 96-well plate, respectively. A compound of different concentration gradients was added using Tecan D300e, and the plate was incubated at 37 °C and 5% CO2 for 2 hours. • 2) 8.33 µL of 20 mM Na3VO4 was added to bring the final concentration to 5 mM, and the plate was incubated at 37 °C and 5% CO2 for 3 h. • 3) During the incubation, the following reagents were prepared: • 4x added lysis buffer: 24 vol 4x lysis buffer + 1 vol 25x blocking reagent. • p-BTK (Y223) cryptate-antibody and p-BTK (Y223) d2-antibody working solutions: 1 volume of each cryopreserved antibody (stored at - 20 °C) was added to 38 times the volume of assay buffer (stored at 4 °C), and mixed well. • 4) After the incubation was completed, 11.1 µL of 4x added lysis buffer was directly added. The plate was shaken at 800 rpm at room temperature for 30 min. • 5) The lysate was mixed well and 16 µL of it was transferred to a 384-well plate. 1 × added lysis buffer was used as a blank control. • 6) 4 µL of pre-mixed working solutions of the two antibodies (cryptate Ab:d2 Ab = 1:1) was added, and the plate was sealed. • 7) The plate was incubated at room temperature overnight. • 8) The plate was read at 665nm and 620nm using Biotek cytation3.0 microplate reader, and the ratio of 665/620nm of each well was calculated. Data analysis: IC50 was calculated using GraphPad Prism 7.0 software.
as §3, §4

[4] = Mus musculus, NIH3T3, phosphorylated BTK Y223, NIH/3T3 BTK C481S cells
[5] = Mus musculus, NIH3T3, phosphorylated BTK Y223, NIH/3T3 BTK WT cells

Compound | IC50 [1, 4] [nM] | IC50 [2, 5] [nM] | IC50 ([3]; Homo sapiens, Ramos) [nM] | IC50 ([1]; phosphorylated BTK Y223, NIH/3T3 BTK C481S cells) [nM] | IC50 ([2]; phosphorylated BTK Y223, NIH/3T3 BTK WT cells) [nM] | IC50 [3] [nM]
COc1ccc(F)cc1C(=O)NCc1ccc(-c2ncc(-c3ccc(F)cn3)c3[nH]nc(N)c23)c(C)c1 [Example 83, N-(4-(3-amino-7-(5-fluoropyridin-2-yl)-1H-pyrazolo[4,3-c]pyridin-4-yl)-3-methylbenzyl)-5-fluoro-2-methoxybenzamide] | > 50 | 10 to 50 | > 50 | – | – | –
COc1ccc(F)cc1C(=O)NCc1ccc(-c2nc(-c3ccccc3C)cc3[nH]nc(N)c23)cc1 [Example 87, N-(4-(3-amino-6-(o-tolyl)-1H-pyrazolo[4,3-c]pyridin-4-yl)benzyl)-5-fluoro-2-methoxybenzamide] | > 50 | > 50 | > 50 | – | – | –
COc1ccc(F)cc1C(=O)NCc1ccc(-c2nc(-c3ccccc3Cl)cc3[nH]nc(N)c23)cc1 [Example 88, N-(4-(3-amino-6-(2-chlorophenyl)-1H-pyrazolo[4,3-c]pyridin-4-yl)benzyl)-5-fluoro-2-methoxybenzamide] | > 50 | 10 to 50 | 5 to 10 | – | – | –
COc1ccc(F)cc1C(=O)NCc1ccc(-c2nc(-c3c(Cl)cccc3Cl)cc3[nH]nc(N)c23)cc1 [Example 89, N-(4-(3-amino-6-(2,6-dichlorophenyl)-1H-pyrazolo[4,3-c]pyridin-4-yl)benzyl)-5-fluoro-2-methoxybenzamide] | > 50 | 10 to 50 | 10 to 50 | – | – | –
COc1ccc(F)cc1C(=O)NCc1ccc(-c2nc(-c3ccc(C(=O)O)cc3)cc3[nH]nc(N)c23)cc1 [Example 90, 4-(3-amino-4-(4-((5-fluoro-2-methoxybenzoylamino)methyl)phenyl)-1H-pyrazolo[4,3-c]pyridin-6-yl)benzoic acid] | > 50 | > 50 | > 50 | – | – | –
Nc1n[nH]c2cc(C3CC[S+]([O-])CC3)nc(-c3ccc(CNC(=O)c4cc(F)ccc4O)cc3)c12 (stereo not drawn) [Example 92, N-(4-(3-amino-6-(1-oxidotetrahydro-2H-thiopyran-4-yl)-1H-pyrazolo[4,3-c]pyridin-4-yl)benzyl)-5-fluoro-2-hydroxybenzamide] | > 50 | > 50 | 10 to 50 | – | – | –
COc1ccc(F)cc1C(=O)NCc1ccc(-c2nc(C3CCS(=O)(=O)CC3)cc3[nH]nc(N)c23)cc1 [Example 93, N-(4-(3-amino-6-(1,1-dioxidotetrahydro-2H-thiopyran-4-yl)-1H-pyrazolo[4,3-c]pyridin-4-yl)benzyl)-5-fluoro-2-methoxybenzamide] | > 50 | > 50 | > 50 | – | – | –
COc1ccc(F)cc1C(=O)NCc1ccc(-c2nc(Cl)cc3[nH]nc(N)c23)cc1 [Example 94, N-(4-(3-amino-6-chloro-1H-pyrazolo[4,3-c]pyridin-4-yl)benzyl)-5-fluoro-2-methoxybenzamide] | > 50 | > 50 | > 50 | – | – | –
COc1ccc(F)cc1C(=O)NCc1ccc(-c2nc(C3CCCN(C(=O)Nc4ccccc4)C3)cc3[nH]nc(N)c23)cc1 (stereo not drawn) [Example 95, 3-(3-amino-4-(4-((5-fluoro-2-methoxybenzoylamino)methyl)phenyl)-1H-pyrazolo[4,3-c]pyridin-6-yl)-N-phenylpiperidine-1-carboxamide] | > 50 | > 50 | 5 to 10 | – | – | –
COc1ccc(F)cc1C(=O)NCc1ccc(-c2nc(C3CCN(C(=O)Nc4ccccc4)CC3)cc3[nH]nc(N)c23)cc1 [Example 97, 4-(3-amino-4-(4-((5-fluoro-2-methoxvbenzoylamino)methyl)phenyl)-1H-pyrazolo[4,3-c]pyridin-6-yl)-N-phenylpiperidine-1-carboxamide] | > 50 | > 50 | 5 to 10 | – | – | –
COc1ccc(F)cc1C(=O)NCc1ccc(-c2ncc(-c3cnn4ccncc34)c3[nH]nc(N)c23)cc1 [Example 109, N-(4-(3-amino-7-(pyrazolo[1,5-a]pyrazin-3-yl)-1H-pyrazolo[4,3-c]pyridin-4-yl)benzyl)-5-fluoro-2-methoxybenzamide] | > 50 | > 50 | > 50 | – | – | –
COc1ccc(F)cc1C(=O)NCc1ccc(-c2ncc(-c3cnc4cccnn34)c3[nH]nc(N)c23)cc1 [Example 110, N-(4-(3-amino-7-(imidazo[1,2-b]pyridazin-3-yl)-1H-pyrazolo[4,3-c]pyridin-4-yl)benzyl)-5-fluoro-2-methoxybenzamide] | > 50 | > 50 | > 50 | – | – | –
COc1ccc(F)cc1C(=O)NCc1ccc(-c2ncc(-c3ccnc4ccnn34)c3[nH]nc(N)c23)cc1 [Example 111, N-(4-(3-amino-7-(pyrazolo[1,5-a]pyrimidin-7-yl)-1H-pyrazolo[4,3-c]pyridin-4-yl)benzyl)-5-fluoro-2-methoxybenzamide] | > 50 | > 50 | > 50 | – | – | –
COc1ccc(F)cc1C(=O)NCc1ccc(-c2ncc(-c3ncn4ccccc34)c3[nH]nc(N)c23)cc1 [Example 113, N-(4-(3-amino-7-(imidazo[1,5-a]pyridin-1-yl)-1H-pyrazolo[4,3-c]pyridin-4-yl)benzyl)-5-fluoro-2-methoxybenzamide] | ≤ 5 | ≤ 5 | ≤ 5 | – | – | –
COc1ccc(F)cc1C(=O)NCc1ccc(-c2nccc3[nH]nc(N)c23)cc1 [Example 116, N-(4-(3-amino-1H-pyrazolo[4,3-c]pyridin-4-yl)benzyl)-5-fluoro-2-methoxvbenzamide] | > 50 | > 50 | > 50 | – | – | –
N-(4-(3-amino-7-(1,7-naphthyridin-2-yl)-1H-pyrazolo[4,3-c]pyridin-4-yl)benzyl)-5-fluoro-2-methoxybenzamide [Example 49] | – | – | – | > 50 | > 50 | > 50
